We go through 2 compounds from patent EP2112152A1, “Dihydropteridinones as Plk Inhibitors” (GPC Biotech AG, priority 2008, dated 2009).

A word on the IC50: it is the concentration at which inhibition is half-maximal.

The structures appear in SMILES notation. Read-outs that look alike come from different tables or passages of the source.

Assay [1] concerns A-375. The assay is described as follows: SRB cell proliferation assay, A-375. The conditions noted are these: Homo sapiens, 18-Cell Line Panel, melanoma. The format is cell-based. On the procedure: (§1) Cells were exposed to the test compounds at various concentrations appropriate to determine an IC50 for 72 hours. Cell proliferation was measured using the SRB assay according to Shekan et al (J Natl Cancer Inst (1990) 82, 1107-112) in order to estimate the IC50 values shown in Table 3. Briefly, cells were plated in 96 well dishes 24 hours prior to compound addition at the densities specified in Table 5.1. The assay was terminated with the addition of cold TCA to a final concentration of 10% after growth medium has been removed and the plates were incubated over night at 4°C. The plates were then washed 5 times with water and 100µl of a Sulforhodamine B solution (4%) was added to each well. The plates were then incubated for 10 minutes at room temperature before removal of unbound dye by washing with 1% acetic acid. The bound dye was solubilised with 10 mM Trizma base and the absorbance read at OD520.
(§2) Table 8.1: 18-Cell Line Panel

For assay [2], the system named is Abl, Akt1, Aur A, c-Kit, c-Raf, Cdk1/CycB, Chk1, FGFR3, Flt3, Fyn, IGF1-R, INSR, Lyn, MAPK-ERK1, p38a, PAK4, PKCalpha, Ret, ROCK2, RSK 1, c-Src, TIE2, and …. The assay is described as follows: Selectivity panel (Proteros), 23 other kinases. The conditions noted are these: tested at 1 mM in triplicates; each of the 23 other kinases. Format: biochemical. The procedure:
Selected compound of the present invention were tested in a standard selectivity panel including Plk1 and 23 other kinases (Proteros biostructures GmbH, Martinsried/Munich, Germany), under conditions of non-disclosure, non-dissemination and non-use.
In brief, compounds 1, 13, 14, and 25 (see Table 1) were tested at 1 mM in triplicates against Plk1 as well as against Abl, Akt1, Aur A, c-Kit, c-Raf, Cdk1/CycB, Chk1, FGFR3, Flt3, Fyn, IGF1-R, INSR, Lyn, MAPK-ERK1, p38a, PAK4, PKCalpha, Ret, ROCK2, RSK 1, c-Src, TIE2, and VEGF-R2.

The subject of assay [3] is HCT 116. The assay can be described thus: SRB cell proliferation assay, HCT 116. The format is cell-based. As to conditions: Homo sapiens. An outline of the steps: (§3)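 Cells plated 24 h before compound, then exposed 72 h over a concentration range. TCA-fixed, sulforhodamine B-stained, bound dye read at OD520; IC50 derived from % inhibition of proliferation versus DMSO-treated cells.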

Assay [4] has as its system A-431. The assay is described as follows: SRB cell proliferation assay, A-431. Format: cell-based. The conditions noted are these: Homo sapiens, 18-Cell Line Panel, skin. The procedure: as §1, §2
In assay [5] the test system is A549. The assay can be described thus: SRB cell proliferation assay, A549. The format is cell-based. As to conditions: Homo sapiens, 18-Cell Line Panel, lung. On the procedure:
as §1, §2

The test system of assay [6] is COLO 205. The assay is described as follows: SRB cell proliferation assay, COLO 205. Format: cell-based. The conditions noted are these: Homo sapiens, 18-Cell Line Panel, colon. On the procedure:
as §1, §2

The test system of assay [7] is IMR-90. The assay can be described thus: SRB cell proliferation assay, IMR-90. The format is cell-based. The conditions noted are these: Homo sapiens. In short, it runs like this: as §3
The test system of assay [8] is NCI-H460. The assay is described as follows: SRB cell proliferation assay, NCI-H460. The format is cell-based. The conditions noted are these: Homo sapiens, 18-Cell Line Panel, NSCLC. On the procedure:
as §1, §2

The test system of assay [9] is HeLa. The assay is described as follows: SRB cell proliferation assay, HeLa. The format is cell-based. The conditions noted are these: Homo sapiens, 18-Cell Line Panel, cervix. The procedure:
as §1, §2

Assay [10] concerns HT-29. The assay is described as follows: SRB cell proliferation assay, HT-29. The format is cell-based. As to conditions: Homo sapiens. In short, it runs like this: as §3
The test system of assay [11] is OVCAR-3. The assay can be described thus: SRB cell proliferation assay, OVCAR-3. The format is cell-based. The conditions noted are these: Homo sapiens, 18-Cell Line Panel, ovary. The procedure: as §1, §2
The subject of assay [12] is DU 145. The assay is described as follows: SRB cell proliferation assay, DU 145. The format is cell-based. The conditions noted are these: Homo sapiens, 18-Cell Line Panel, prostate, read-out: IC50 DU145. On the procedure:
as §1, §2

The test system of assay [13] is SW620. The assay is described as follows: SRB cell proliferation assay, SW620. As to conditions: Homo sapiens, SW-620; 18-Cell Line Panel; colon. The format is cell-based. The procedure:
as §1, §2

Assay [14] concerns ACHN. The assay is described as follows: SRB cell proliferation assay, ACHN. The format is cell-based. As to conditions: Homo sapiens, 18-Cell Line Panel, kidney. On the procedure:
as §1, §2

The target in assay [15] is Plk1 (Homo sapiens, UniProt P53350). The assay is described as follows: Select Screen Kinase Assay (Invitrogen Kinase Profiling Service). The format is biochemical. The conditions noted are these: tested at Invitrogen; read-out: IC50 values against Plk1 activity. The procedure:
Selected compound of the present invention were tested in the Select Screen™ Kinase Profiling Service (Invitrogen Corporation, Madison, WI 53719, USA) against Plk1, under conditions of non-disclosure, non-dissemination and non-use.
In brief, compounds 1 and 13 (see Table 1) were tested at Invitrogen, and IC50 values against Plk1 activity of about 20 nM were obtained in each case.

Assay [16] deals with SK-MEL-5. The assay can be described thus: SRB cell proliferation assay, SK-MEL-5. The format is cell-based. The conditions noted are these: Homo sapiens, 18-Cell Line Panel, melanoma. On the procedure:
as §1, §2

Assay [17] deals with MDA-MB-231. The assay is described as follows: SRB cell proliferation assay, MDA-MB-231. The conditions noted are these: Homo sapiens, 18-Cell Line Panel, breast. The format is cell-based. The procedure:
as §1, §2

Assay [18] deals with MDA-MB-468. The assay can be described thus: SRB cell proliferation assay, MDA-MB-468. Format: cell-based. The conditions noted are these: Homo sapiens, MDA-MB-468; 18-Cell Line Panel; breast. The procedure: as §1, §2
The mark [19] stands for this setting: HCT-116, 18-Cell Line Panel, colon, read-out: IC50 HCT116.
The mark [20] stands for this setting: HCT-116, 72 h, 72 hours, SRB assay, read-out: CELLULAR IC50 HCT 116.
[21] abbreviates: 18-Cell Line Panel, lung, read-out: IC50 IMR-90.
The mark [22] stands for this setting: 72 hours, SRB assay, slow cycling cell line, read-out: CELLULAR IC50 IMR-90.
The mark [23] stands for this setting: HT-29, 18-Cell Line Panel, colon, read-out: IC50 HT-29.
The mark [24] stands for this setting: HT-29, 72 h, 72 hours, SRB assay, read-out: CELLULAR IC50 HT-29.

Chain of Plk1 (P53350 whole entry, species assumed): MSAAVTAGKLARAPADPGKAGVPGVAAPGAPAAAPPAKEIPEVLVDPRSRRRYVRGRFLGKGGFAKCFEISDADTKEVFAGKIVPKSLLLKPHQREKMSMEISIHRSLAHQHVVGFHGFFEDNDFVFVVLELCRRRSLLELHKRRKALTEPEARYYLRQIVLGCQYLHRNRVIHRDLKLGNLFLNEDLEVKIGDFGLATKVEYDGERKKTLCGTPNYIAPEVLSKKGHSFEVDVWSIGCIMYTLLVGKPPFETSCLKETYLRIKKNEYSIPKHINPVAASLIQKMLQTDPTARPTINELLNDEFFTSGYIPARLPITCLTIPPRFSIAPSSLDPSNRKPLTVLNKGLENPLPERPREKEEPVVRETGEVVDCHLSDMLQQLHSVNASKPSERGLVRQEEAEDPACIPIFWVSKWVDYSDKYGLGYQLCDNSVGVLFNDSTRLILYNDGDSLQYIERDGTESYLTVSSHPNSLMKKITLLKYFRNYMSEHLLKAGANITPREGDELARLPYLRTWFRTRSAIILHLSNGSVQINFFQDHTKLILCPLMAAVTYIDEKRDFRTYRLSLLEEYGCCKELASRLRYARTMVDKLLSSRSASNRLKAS

Turning to `CCC1C(=O)N(C)c2cnc(Nc3ccc(C(=O)NC4CCN(C)CC4)cc3OC)nc2N1N(C)C` (racemic) [Compound 1, 4-(8-Dimethylamino-7-ethyl-5-methyl-6-oxo-5,6,7,8-tetrahydro-pteridin-2-ylamino)-3-methoxy-N-(1-methyl-piperidin-4-yl)-benzamide], the IC50 in [1], in assay [3] (setting [19]), in assay [3] (setting [20]), in assay [4], in assay [5] and in assay [6] was < 1000 nM each time. The IC50 in assay [7] (setting [21]) was > 1000 nM; in assay [7] (setting [22]), > 1000 nM; in assay [8] it was < 1000 nM; in assay [9], < 1000 nM; in [10] (setting [23]), < 1000 nM; in assay [10] (setting [24]), < 1000 nM. The IC50 in [11] was < 1000 nM; in assay [12] it was < 1000 nM; in assay [13], < 1000 nM; in assay [14], > 1000 nM; in assay [15], ~20 nM; in assay [16], < 1000 nM. The IC50 in assay [17] was > 1000 nM; in assay [18], < 1000 nM. Also, the “all other kinases were inhibited” value in assay [2] is “less than 10%”.
For `CCC1C(=O)N(C)c2cnc(Nc3ccc(C(=O)N[C@H]4CC[C@H](N5CCN(CC6CC6)CC5)CC4)cc3OC)nc2N1N(C)C` (relative stereo) [Compound 13, N-[trans-4-(4-Cyclopropylmethyl-piperazin-1-yl)-cyclohexyl]-4-(8-dimethylamino-7-ethyl-5-methyl-6-oxo-5,6,7,8-tetrahydro-pteridin-2-ylamino)-3-methoxy-benzamide], the IC50 in assay [1], in assay [3] (setting [19]), in assay [3] (setting [20]), in assay [4], in assay [5] and in [6] was < 1000 nM each time. The IC50 in assay [7] (setting [21]) was > 1000 nM; in assay [7] (setting [22]) it was > 1000 nM; in [8], < 1000 nM; in assay [9], < 1000 nM; in assay [10] (setting [23]) it was < 1000 nM; in assay [10] (setting [24]), < 1000 nM. The IC50 was < 1000 nM in assay [11]; < 1000 nM in assay [12]; < 1000 nM in assay [13]; < 1000 nM in [14]; ~20 nM in assay [15]; < 1000 nM in [16]. Also, the IC50 in assay [17] is < 1000 nM; in assay [18], > 1000 nM. Also, the “all other kinases were inhibited” value in assay [2] was “less than 10%”.
